The values that follow come from ChEMBL document CHEMBL5104089, “An update into the medicinal chemistry of translocator protein (TSPO) ligands” (Eur J Med Chem, 2021).

The term EC50 denotes the concentration giving half of the maximal effect. As usually defined, the IC50 is the point on the concentration scale where inhibition reaches its midpoint. A lower IC50 goes with higher potency. The term Ki denotes a dissociation constant, usually derived from enzyme kinetics or from competition with a known ligand. The term logD denotes the decadic logarithm of the distribution of all forms, ionised or not, between an organic phase and buffer at a given pH. Read a high logD as a more lipophilic compound.

For data set [1], the target named is T1, Translocator protein (Homo sapiens, UniProt P30536). The experiment in a line: Inhibition of TSPO (unknown origin) in mouse MA-10 cells assessed as increase in steroid steroidogenesis.
Data set [2] is described as follows: Displacement of [3H]flunitrazepam from CBR receptor in rat brain cerebral cortex by liquid scintillation spectrometer method. It counts as tissue-based.
Data set [3] addresses T2, Translocator protein (Rattus norvegicus, UniProt P16257). Nature of the data set: Displacement of [3H]-Ro54864 from TSPO receptor in rat heart microsomes incubated for 45 mins by scintillation method. The arrangement: species or system Microsome.
Data set [4] in a line: Displacement of [3H]-Ro51788 from CBR receptor in rat brain microsomes incubated for 60 mins by scintillation method. Set-up: species or system Microsome. (In general: In a radioligand displacement assay an active substance lowers the binding of a labelled ligand.)
For data set [5], the target named is T2, Translocator protein. Nature of the data set: Displacement of [3H]-PK11195 from TSPO receptor in rat heart microsomes incubated for 15 mins by scintillation method. Set-up: species or system Microsome.
The target of data set [6] is T2, Translocator protein. The experiment in a line: Displacement of [3H]-PK11195 from TSPO receptor in Sprague-Dawley rat brain incubated for 30 mins by […] analysis. It counts as tissue-based.
Data set [7] is described as follows: Lipophilicity, logD of the compound in 1-octanol and phosphate buffer in pH 7.4 incubated for 3 mins by shake flask method. It counts as physicochemical. Conditions: 1-octanol/phosphate buffer.
A short description of data set [8]: Binding affinity to CBR (unknown origin). The arrangement: species or system Homo sapiens.
Data set [9] has as its target T2, Translocator protein. Nature of the data set: Displacement of [3H]-flunitrazepam from TSPO receptor in Wistar rat brain without cerebellum incubated for 90 mins by liquid scintillation counter analysis. Format: tissue-based.
Data set [10] can be described thus: Selectivity ratio of Ki for CBR (unknown origin) to Ki for TSPO receptor in Wistar rat brain.
Data set [11] addresses T1, Translocator protein. The experiment in a line: Inhibition of TSPO receptor (unknown origin).
The nature of data set [12]: Stability of the compound assessed as intact compound level measured after 24 hrs by iTLC-SG analysis. Format: physicochemical. Particulars: read-out: Stability.
Data set [13] is described as follows: Stability of the compound in human serum assessed as intact compound level measured after 24 hrs by iTLC-SG analysis. Format: ADME, cell-free. Particulars: read-out: Stability.
For data set [14], the target named is T1, Translocator protein. The experiment in a line: Binding affinity to TSPO (unknown origin) relative to control. Conditions: tested as the 11C-labelled form.
Data set [15] in a line: Lipophilicity, logD of the compound. Particulars: octanol/water. It counts as physicochemical.
Data set [16] can be described thus: Lipophilicity, logD of the compound in 1-octanol and phosphate buffer in pH 7.4 incubated for 3 mins. Format: physicochemical. Particulars: 1-octanol/phosphate buffer.
Data set [17] deals with T1, Translocator protein. The experiment in a line: Displacement of [3H]-PK11195 from TSPO receptor in human Leucocyte incubated for 30 mins by beta-counter analysis. Format: cell-based.
Data set [18] concerns the target T2, Translocator protein. The experiment in a line: Binding affinity to TSPO in Sprague-Dawley rat brain. It counts as tissue-based.

T1 sequence (P30536 whole entry): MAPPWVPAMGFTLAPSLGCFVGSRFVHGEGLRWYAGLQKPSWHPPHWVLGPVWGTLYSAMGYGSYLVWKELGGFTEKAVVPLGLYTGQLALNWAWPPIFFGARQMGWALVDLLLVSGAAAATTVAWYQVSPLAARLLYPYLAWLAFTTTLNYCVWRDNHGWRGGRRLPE
T2 sequence (P16257 whole entry, looked up): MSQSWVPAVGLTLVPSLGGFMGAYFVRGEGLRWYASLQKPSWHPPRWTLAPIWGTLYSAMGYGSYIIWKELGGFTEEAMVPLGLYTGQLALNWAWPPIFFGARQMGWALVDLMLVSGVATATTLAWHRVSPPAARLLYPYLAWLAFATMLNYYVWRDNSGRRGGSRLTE

Take `CCCN(CCC)C(=O)Cc1c(-c2ccc(OC)cc2)nc2c(Cl)cc(Cl)cn12`: the EC50 on Translocator protein [1] worked out at 571 nM. Consider `CC(=O)N(Cc1ccccc1OC(C)C)c1ccc(Cl)cc1Oc1ccccc1`, for which the IC50 in data set [2] is > 1000 nM. Consider `CCCN(CCC)C(=O)Cn1c(=O)n2cc(-c3ccccc3)nc2c2ccccc21`, for which the figures for the IC50 (on Translocator protein [3]; in [4]; at Translocator protein [5]) were 12 nM, > 10000 nM and 11 nM, respectively. The matching figures for `CCN(CC)C(=O)Cn1c(=O)n2cc(-c3ccc(OC)c(OC)c3)nc2c2ccccc21`: 500 nM, > 10000 nM and 150 nM.

In the case of `CN(C(=O)Cn1c(=O)oc2ccc(-c3ccc(OCC[18F])cc3)cc21)c1ccccc1`, the inhibition constant (Ki) at Translocator protein [6] came out at 6.6 nM. Also, in [7], the log distribution coefficient (logD) at 0.05 h is 3.43.

In the case of `CCCN(CCC)C(=O)Cc1c(-c2ccc(Cl)cc2)nc2ccc(Cl)cn12` [ALPIDEM], the figures for the Ki (in data set [8]; at Translocator protein [9]) were 1 nM and 7.9 nM, respectively. Moreover, in data set [10], the Ratio Ki was 3.29. In turn, `CC(=O)N(C)c1ccccc1Oc1ccccc1` came in with an IC50 against Translocator protein [11] of 6.7 nM. As to `COC(=O)C(Cc1c[nH]c2ccccc12)NC(=O)Cn1c(=O)oc2ccc(Br)cc21` (configuration not stated), the remaining at 24 h in data set [12] was > 94%; in data set [13] it was > 91%. As for `CCN(CC)C(=O)Cn1c(=O)n2c(C)c(-c3ccccc3)nc2c2ccccc21`, the half-maximal inhibitory concentration (IC50) on Translocator protein [3] is 9 nM; in [4], > 10000 nM; on Translocator protein [5], 29 nM. For the compound `COc1ccc(OC)c(CN(C(C)=O)c2cc(F)ccc2Oc2ccccc2)c1`, the IC50 is 0.28 nM against Translocator protein [11] and > 1000 nM in [2]. Besides, on Translocator protein [14], the Activity was found to be 80%. `CCCN(CCC)C(=O)Cc1c(-c2ccc(OC)cc2)nc2ccc(Cl)cn12`: the EC50 at Translocator protein [1] was 15900 nM. Besides, the figures for the Ki (in data set [8]; on Translocator protein [9]) were 105 nM and 0.5 nM, respectively. For the same compound, in data set [10], the Ratio Ki was 210. Compound `COc1ccc(-c2ccc3oc(=O)n(CC(=O)N(C)c4ccccc4)c3c2)cc1` yielded a logD in [15] of 3.5. For the compound `CCCN(CCC)C(=O)Cc1c(-c2ccc(OCC(=O)O)cc2)nc2c(Cl)cc(Cl)cn12`, on Translocator protein [1], the EC50 came to 39000 nM. As for `CC(=O)N(Cc1ccccc1OC[18F])c1cnccc1Oc1ccccc1`, the logD at 0.05 h in [16] came to 2.85. As to `CCC(C)N(C)C(=O)c1cc2ccccc2c(-c2ccccc2Cl)n1` (configuration not stated) [PK-11195], the Ki in data set [8] is > 100000 nM. Take `CCN(CC)C(=O)Cn1c(=O)n2cc(-c3ccccc3)nc2c2ccccc21`: the IC50 at Translocator protein [3] was 80 nM; in data set [4] it was > 10000 nM; on Translocator protein [5], 400 nM.

`CC(=O)N(Cc1ccccc1O[11CH3])c1cnccc1Oc1ccccc1` had a concentration for half-maximal inhibition (IC50) on Translocator protein [17] of 8.07 nM. This compound registered a logD at 0.05 h in data set [16] of 2.82.

For the compound `CN(C(=O)Cn1c(=O)oc2ccc(-c3cccc([N+](=O)[O-])c3)cc21)c1ccccc1O[11CH3]`, the logD in data set [15] turned out to be 2.08. Moreover, the Ki on Translocator protein [18] came to 4.9 nM. Take `CCCN(CCC)C(=O)Cc1c(-c2ccc(O)cc2)nc2ccc(Cl)cn12`: the EC50 at Translocator protein [1] amounted to 6990 nM. In addition, the Ki worked out at 1.05 nM in data set [8] and 22.2 nM at Translocator protein [9]. Besides, the Ratio Ki in data set [10] worked out at 21.1. Regarding `CN1C(=O)CN=C(c2ccccc2F)c2cc([N+](=O)[O-])ccc21` [FLUNITRAZEPAM], the Ki in data set [8] is 5.11 nM. Consider `CCCN(CCC)C(=O)Cc1c(-c2ccc(Cl)cc2)nc2c(Cl)cc(Cl)cn12` [ALPDEM], for which, at Translocator protein [1], the EC50 was 337 nM.

Consider `Oc1nc2ccccc2c2nc(-c3ccccc3)nn12`, for which the IC50 on Translocator protein [3] amounted to 15 nM; on Translocator protein [5], 9800 nM. Compound `CCN(CC)C(=O)Cn1c(=O)n2nc(-c3ccccc3)nc2c2ccccc21` showed an IC50 on Translocator protein [5] of 1700 nM. `CCCN(CCC)C(=O)Cc1c(-c2ccc(Cl)cc2)nc2c(NCC(=O)O)cccn12`: the EC50 on Translocator protein [1] was 21200 nM.
